Assay results as given in ChEMBL document CHEMBL5725952, “Imidazopyridine macrocycles as inhibitors of human immunodeficiency virus replication” (2018).

Test: Inhibition of HIV Replication: A recombinant NL-RLuc proviral clone was constructed in which a section of the nef gene from NL4-3 was replaced with the Renilla Luciferase gene. This virus is fully infectious and can undergo multiple cycles of replication in cell culture. In addition, the luciferous reporter provides a simple and easy method for quantitating the extent of virus growth and consequently, the antiviral activity of test compounds. The plasmid pNLRLuc contains the proviral NL-Rluc DNA cloned into pUC18 at the PvuII site. The NL-RLuc virus was prepared by transfection of 293T cells with the plasmid pNLRLuc. Transfections were performed using the LipofectAMINE PLUS kit from Invitrogen (Carlsbad, Calif.) according to the manufacturer and the virus generated was titered in MT-2 cells. For susceptibility analyses, the titrated virus was used to infect MT-2 cells in the presence of compound, and after 5 days of incubation, cells were processed and quantitated for virus growth by the amount of expressed luciferase. Assay media was RPMI 1640 supplemented with 10% heat inactivated fetal bovine serum (FBS), 100 units/ml penicillin G/100 units/ml streptomycin, 10 mM HEPES buffer pH 7.55 and 2 mM L-glutamine. The results from at least 2 experiments were used to calculate the EC50 values. Luciferase was quantitated using the Dual Luciferase kit from Promega (Madison, Wis.). […]
Assay type: cell-based
Conditions: HEK-293T

SMILES	EC50 [µM]
Cc1c([C@H](OC(C)(C)C)C(=O)O)c2n3cc(nc3c1C)-c1cccc(c1)-c1cc(F)c(F)cc1O[C@@H](C)COCCOC1(C)CCN2CC1	< 0.1
Cc1c([C@@H](OC(C)(C)C)C(=O)O)c2n3cc(nc3c1C)-c1cccc(c1)-c1cc(F)c(F)cc1O[C@@H](C)COCCOC1(C)CCN2CC1	0.55
